The record followed here is patent US20190106434A1, “N-[3-[2-AMINO-5-(1,1-DIFLUOROETHYL)-4,4A,5,7-TETRAHYDROFURO[3,4-D][1,3]OXAZIN-7A-YL]-4-FLUORO-PHENYL-5-(TRIFLUOROMETHYL)PYRIDINE-2-CARBOXAMIDE AND ITS (4AR,5S,7AS) ISOMER AS A SELECTIVE BACE1 INHIBITOR FOR TREATING E.G. ALZHEIMER'S DISEASE” (Eli Lilly and Company, priority 2016, published 2019).

Series [1] concerns beta-secretase. The series is described as follows: In vivo inhibition of beta-secretase, cannulated beagle dog model (Abeta 1-x ELISA). The note with it: male beagle dogs, 1.0 mg/kg p.o. As to the method:
(§1) Several animal models, including mouse, guinea pig, dog, and monkey, may be used to screen for inhibition of beta-secretase activity in vivo following compound treatment. Herein, we conduct central pharmacology studies in a cannulated beagle dog model. In this model, a cohort of male beagle dogs are implanted with a cannula in the lumbar spine region and threaded up towards the cervical spine. This model allows multiple CSF collections throughout a single 48-72 hour study period through a subcutaneous lumbar port attached to the spinal catheter. As long as the cannula remains patent, additional CSF pharmacology studies can be conducted within the same cohort of dogs. Blood samples are processed to obtain plasma, and then plasma and CSF samples are aliquoted to allow determination of test compound and Abeta CSF concentrations.
In this study, six male beagle dogs are dosed p.o. with 1.0 mg/kg Example 1 in a 0.5 M, phosphate buffer (pH=2.0) formulation and blood (0.5, 1, 2, 3, 6, 9, 12, 24, and 48 hours) and CSF (3, 6, 9, 24, and 48 hours) are collected. Plasma and CSF compound concentrations are determined by LC/MS/MS methods. Plasma and CSF are also analyzed for Abeta 1-x. “Abeta 1-x” as used herein refers to the sum of Abeta species that begin with residue 1 and end with a C-terminus greater than residue 28. This detects the majority of Abeta species and is often called “total Abeta”. Total Abeta peptides (Abeta 1-x) levels are measured by a sandwich ELISA, using monoclonal 266 as a capture antibody and biotinylated 3D6 as reporting antibody. (See May, et al., Journal of Neuroscience, 31, 16507-16516 (2011)).
For orientation: In an ELISA, binding on a coated surface is turned into a signal by an enzyme label.

In series [2] the target is T1, Human BACE1(1-460):Fc (Homo sapiens, UniProt P56817).
T1 construct: made in house; host or cells: HEK293 cells, transient transfection; purified from conditioned media by Protein A
T1 sequence (P56817 22-460): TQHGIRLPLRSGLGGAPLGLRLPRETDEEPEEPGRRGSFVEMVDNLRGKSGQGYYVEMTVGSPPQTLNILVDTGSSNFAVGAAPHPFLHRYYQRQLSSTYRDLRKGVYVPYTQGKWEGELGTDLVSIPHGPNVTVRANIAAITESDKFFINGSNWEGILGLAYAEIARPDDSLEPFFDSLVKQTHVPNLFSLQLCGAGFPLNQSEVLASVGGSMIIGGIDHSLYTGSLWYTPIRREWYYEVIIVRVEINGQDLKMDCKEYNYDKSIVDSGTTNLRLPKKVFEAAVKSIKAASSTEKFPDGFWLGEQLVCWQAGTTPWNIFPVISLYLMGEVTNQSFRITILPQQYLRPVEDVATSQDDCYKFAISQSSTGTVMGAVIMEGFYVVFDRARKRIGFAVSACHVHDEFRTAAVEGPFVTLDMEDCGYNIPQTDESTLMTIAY
Put plainly: BACE1 FRET Assay. To be noted: purified recombinant huBACE1:Fc, FRET substrate based on APP; mean ± standard deviation of the mean, n=12. The class given is biochemical. As to the method:
(§2) To assess selectivity of BACE1 over BACE2, the test compound is evaluated in FRET assays using specific substrates for BACE1 and BACE2 as described below. For in vitro enzymatic and cellular assays, the test compound is prepared in DMSO to make up a 10 mM stock solution. The stock solution is serially diluted in DMSO to obtain a ten-point dilution curve with final compound concentrations ranging from 10 μM to 0.05 nM in a 96-well round-bottom plate before conducting the in vitro enzymatic and whole cell assays.
(§3) Human BACE1 (accession number: AF190725) and human BACE2 (accession number: AF 204944) are cloned from total brain cDNA by RT-PCR. The nucleotide sequences corresponding to amino acid sequences #1 to 460 are inserted into the cDNA encoding human IgG1 (Fc) polypeptide (Vassar et al., Science, 286, 735-742 (1999)). […]
(§4) Conditioned media of HEK293 cells transiently transfected with huBACE1:Fc or huBACE2:Fc cDNA are collected. […] The purity of the final product is assessed by electrophoresis in 4-20% Tris-Glycine SDS-PAGE. […]
Serial dilutions of the test compound are prepared as described above. […] The RFU of the mixture at time 0 is recorded at excitation wavelength 355 nm and emission wavelength 460 nm, after brief mixing on a plate shaker. […] The RFU at the end of incubation is recorded with the same excitation and emission settings used at time 0. […]

In series [3] the target is T2, human BACE2 (1-460):Fc (Homo sapiens, UniProt Q9Y5Z0).
T2 construct: made in house; host or cells: HEK293 cells, transient transfection; purified from conditioned media by Protein A
T2 sequence (Q9Y5Z0 21-460): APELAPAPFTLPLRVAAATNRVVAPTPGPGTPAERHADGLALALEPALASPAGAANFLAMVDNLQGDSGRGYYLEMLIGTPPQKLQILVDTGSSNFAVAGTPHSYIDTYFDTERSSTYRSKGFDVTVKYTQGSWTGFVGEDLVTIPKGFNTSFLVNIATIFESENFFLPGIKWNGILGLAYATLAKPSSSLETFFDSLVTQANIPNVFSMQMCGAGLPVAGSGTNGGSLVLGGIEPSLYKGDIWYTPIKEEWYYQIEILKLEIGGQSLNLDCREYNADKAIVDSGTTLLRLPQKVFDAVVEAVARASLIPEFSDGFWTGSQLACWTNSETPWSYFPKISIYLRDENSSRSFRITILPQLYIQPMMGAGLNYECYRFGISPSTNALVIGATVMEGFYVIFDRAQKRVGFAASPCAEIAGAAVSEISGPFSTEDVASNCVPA
Put plainly: BACE2 TMEM27 FRET Assay. It counts as biochemical. As to the method: as §2, §3, §4
Serial dilutions of test compound are prepared as described above. […] The RFU of the mixture at time 0 is recorded at excitation wavelength 430 nm and emission wavelength 535 nm. […] The RFU at the end of incubation is recorded with the same excitation and emission settings used at time 0. […]

Series [4] can be described thus: Plasma and CSF compound exposure in cannulated beagle dogs (LC/MS/MS). The note with it: dog, po, male beagle dogs, 1.0 mg/kg p.o. It counts as in vivo. As to the method:
as §1
In this study, six male beagle dogs are dosed p.o. with 1.0 mg/kg Example 1 in a 0.5 M, phosphate buffer (pH=2.0) formulation and blood (0.5, 1, 2, 3, 6, 9, 12, 24, and 48 hours) and CSF (3, 6, 9, 24, and 48 hours) are collected. Plasma and CSF compound concentrations are determined by LC/MS/MS methods. Plasma and CSF are also analyzed for Abeta 1-x. […] Total Abeta peptides (Abeta 1-x) levels are measured by a sandwich ELISA, using monoclonal 266 as a capture antibody and biotinylated 3D6 as reporting antibody. […]

The target of series [5] is T3, BACE1 activity in SH-SY5YAPP695Wt cells (Homo sapiens, UniProt P56817).
T3 construct: endogenous in cells; host or cells: SH-SY5Y (ATCC CRL2266) stably expressing human APP695Wt
T3 sequence (P56817 46-501): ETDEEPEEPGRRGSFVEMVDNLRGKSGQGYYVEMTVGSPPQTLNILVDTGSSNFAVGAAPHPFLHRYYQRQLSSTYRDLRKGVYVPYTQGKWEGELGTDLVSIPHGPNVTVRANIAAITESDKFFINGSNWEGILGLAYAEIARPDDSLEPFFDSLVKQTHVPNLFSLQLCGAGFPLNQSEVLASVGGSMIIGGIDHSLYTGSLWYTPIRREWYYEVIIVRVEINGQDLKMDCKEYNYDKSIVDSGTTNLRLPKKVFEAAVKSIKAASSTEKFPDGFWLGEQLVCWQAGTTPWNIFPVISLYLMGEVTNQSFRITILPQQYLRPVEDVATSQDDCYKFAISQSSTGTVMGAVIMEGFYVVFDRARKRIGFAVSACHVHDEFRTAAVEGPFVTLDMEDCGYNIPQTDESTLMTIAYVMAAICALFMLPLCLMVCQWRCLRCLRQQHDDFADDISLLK
The series is described as follows: SH-SY5YAPP695Wt Whole Cell Assay (Abeta ELISA). It counts as cell-based. The note with it: 24 hours incubation, conditioned media, n=4. The procedure: as §2
The routine whole cell assay for the measurement of inhibition of BACE1 activity utilizes the human neuroblastoma cell line SH-SY5Y (ATCC Accession No. CRL2266) stably expressing a human APP695Wt cDNA. Cells are routinely used up to passage number 6 and then discarded.
SH-SY5YAPP695Wt cells are plated in 96 well tissue culture plates at 5.0×10^4 cells/well in 200 μL culture media (50% MEM/EBSS and Ham's F12, 1× each sodium pyruvate, non-essential amino acids and NaHCO3 containing 10% FBS). The following day, media is removed from the cells, fresh media added then incubated at 37° C. for 24 hours in the presence/absence of test compound at the desired concentration range.
At the end of the incubation, conditioned media are analyzed for evidence of beta-secretase activity by analysis of Abeta peptides 1-40 and 1-42 by specific sandwich ELISAs. […]

Like-named read-outs stand apart in the source and are kept apart here.

The term IC50 denotes the concentration needed to halve the response being measured. For orientation: AUC means concentration integrated over time. As to `CC(F)(F)[C@H]1OC[C@]2(c3cc(NC(=O)c4ccc(C(F)(F)F)cn4)ccc3F)N=C(N)OC[C@H]12` [Example 1, N-[3-[(4aR,5S,7aS)-2-Amino-5-(1,1-difluoroethyl)-4,4a,5,7-tetrahydrofuro[3,4-d][1,3]oxazin-7a-yl]-4-fluoro-phenyl]-5-(trifluoromethyl)pyridine-2-carboxamide], the entries for the “reduction of CSF Abeta 1-x levels relative to baseline” value in series [1] (24 hours) and in series [1] (48 hours) were “approximately 65%” and approximately 55%, respectively. Besides, the “reduction in plasma levels of Abeta 1-x at nadir” value in series [1] (48 hour post-dosing period) is “up to 80%”. Also, the IC50 turned out to be 11.9 nM in series [2]; 602 nM in series [3] (huBACE2:Fc, TMEM27 LucY FRET substrate, mean ± standard deviation of the mean, n=6); 1.03 nM in series [5] (read-out: IC50 for SH-SY5YAPP695Wt A-beta (1-40) ELISA); 1.28 nM in series [5] (read-out: IC50 for SH-SY5YAPP695Wt A-beta (1-42) ELISA). Further, in series [3] (selectivity for BACE1 over BACE2), the “BACE1 selectivity over BACE2 (BACE2 IC50 / BACE1 IC50)” value was “approximately 50 fold”. Further, the Kp in series [4] (CSF / free plasma, free fraction by equilibrium dialysis, read-out: ratio of CSF AUC to free plasma AUC) was 0.17. In series [4] (plasma, read-out: total plasma AUC exposure), the AUC came to 7.96 µM·h.
